pKi: −log10 of the molar value.
Experiments:
[1] = DPPH radical scavenging assay; settings: 1 mM, 30 min in the dark
Description: The 2,2-diphenyl-1-picrylhydrazyl (DPPH) radical scavenging capacity of the (Z)-BPT derivatives (1 mM) was investigated using L-ascorbic acid (1 mM, vitamin C) as a positive control. […] L-Ascorbic acid scavenged 97.1% of the DPPH radical, whereas (Z)-BPT derivative 1 with a 4-hydroxyl substituent on the β-phenyl ring scavenged 46.5% of the DPPH radical.
The antioxidant properties of (Z)-BPT derivatives 1–14 against DPPH (2,2-diphenyl-1-picrylhydrazyl) radicals were examined using a DPPH radical scavenging assay, as previously described with minor modifications. DPPH solution (180 µL, 0.2 mM) in methanol was mixed with a (Z)-BPT derivative solution (1–14, 20 µL, 10 mM) in dimethyl sulfoxide in each well of a 96-well plate, and the mixture was kept for 30 min in the dark at room temperature. The absorbance at 517 nm was measured using a VersaMax ™ microplate reader (Molecular Devices, Sunnyvale, CA, USA). The capacity of the derivatives to scavenge DPPH radicals was compared with that of L-ascorbic acid, which was used as the positive control. Each experiment was run independently in triplicates.
Figure 10 The radical scavenging effect of (Z)-BPT derivatives on DPPH. The DPPH radical scavenging activities of test samples (1 mM) were assayed after being left in the dark for 30 min. Distilled water and dimethyl sulfoxide (DMSO) were utilized as the solvents for the positive control L-ascorbic acid and the (Z)-BPT derivatives, respectively. Asterisks (***) represent a significant difference between L-ascorbic acid and the (Z)-BPT derivatives, and results are expressed as the mean ± standard error of three different experiments. *** p < 0.001.

B16F10 cells = assay: Cell viability / cytotoxicity, EZ-Cytox assay; assay type: cell-based, murine
Description: Before investigating their inhibitory effects on B16F10 cells, the viability of (Z)-BPT derivatives 1–3 was examined in B16F10 cells.
To determine the cell viability, six different concentrations (0, 1, 2, 5, 10, and 20 µM) of (Z)-BPT derivatives 1–3 were used, and the results were examined at two time points (48 and 72 h). […] Based on the cell viability results, the concentrations for cell-based assays related to the melanin production level and cellular tyrosinase activity were determined.
Cytotoxicity studies of (Z)-BPT derivatives 1–3 were performed on B16F10 melanoma cells using the previously established EZ-Cytox (EZ-3000, DoGenBio, Seoul, Republic of Korea) test, and cytotoxicity studies of (Z)-BPT derivatives 1–3 were conducted on B16F10 melanoma cells. Briefly, B16F10 cells were seeded in a 96-well plate at a density of 1 × 10^4 cells/well and cultivated at 37 °C for 24 h in a humid environment with 5% CO2. […] The cells were then incubated at 37 °C for 2 h after 10 µL of the EZ-Cytox solution had been added to each well. To determine the cell viability, the absorbance of each well was measured at 450 nm using a microplate reader (VersaMax^TM, Molecular Devices, Sunnyvale, CA, USA). Each assay was performed in triplicates.
Figure 6 Effects of (Z)-BPT derivatives 1–3 on cell viability in B16F10 cells. Cytotoxic effects were measured using an EZ-Cytox assay at six different concentrations (0, 1, 2, 5, 10, and 20 µM) of 1–3. (A) Derivative 1; (B) Derivative 2; (C) Derivative 3. *** p < 0.001 for non-treated cells vs. cells treated with 3.

mushroom tyrosinase [2] = biological target: T1, mushroom tyrosinase (Agaricus bisporus, UniProt C7FF04); assay: Kinetic studies on mushroom tyrosinase inhibition (Lineweaver–Burk and Dixon plots, L-DOPA substrate); assay type: biochemical; set-up: purchased Sigma-Aldrich
Description: As depicted in Figure 2, the mechanisms of tyrosinase inhibition were analyzed using Lineweaver–Burk plots. […] Each of the four straight lines produced at each inhibitor concentration converged to a single point on the y-axis. […] In contrast, in derivative 3, four straight lines generated at each inhibitor concentration intersected at a point in the second quadrant. According to the Lineweaver–Burk plot, as the inhibitor concentration increased, the Vmax value of 3 decreased, but the KM value increased.
To determine the Ki (inhibition constant) values of (Z)-BPT derivatives 1–3, Lineweaver–Burk plots for 1–3 were transformed into the corresponding Dixon plots (Figure 3). Each Dixon plot obtained from each Lineweaver–Burk plot produced four straight lines that intersected at one point in the second quadrant. The vertical lines from the merge point to the x-axis provide the Ki value of each (Z)-BPT derivative.
To determine the mode of action, Lineweaver–Burk plots of (Z)-BPT derivatives 1–3 were acquired. In brief, 10 µL of (Z)-BPT derivatives 1–3 (final concentrations:0, 3, 6, or 12 µM for 1; 0, 0.05, 0.1, or 0.2 µM for 2; 0, 2.5, 5, or 10 µM for 3) was added to a 96-well plate containing a substrate mixture (170 µL) consisting of an aqueous solution of L-dopa at final concentrations of 0.5, 1.0, 2.0, or 4.0 mM and 14.7 mM potassium phosphate buffer (pH 6.5), and a mushroom tyrosinase aqueous solution (20 µL, 20 units). Using a microplate reader (VersaMax^TM, Molecular Devices, Sunnyvale, CA, USA) to measure the increase in absorbance at a wavelength of 492 nm (ΔOD492/min), the initial rate of dopachrome synthesis in the reaction mixture was estimated. Using five different concentrations of L-dopa, Lineweaver–Burk plots (inverse of the response rate (1/V) vs. inverse of L-dopa concentration (1/(S)) were created. The convergence points of the four plot lines were used to define the mode of action of tyrosinase inhibition.
Figure 2 Lineweaver–Burk plots for the inhibition of mushroom tyrosinase activity by (Z)-BPT derivatives 1–3. […] Three independent experiments with five different concentrations (0.5, 1, 2, 4, and 8 mM) of an L-DOPA substrate were used to measure the augmented dopachrome optical density per minute at 492 nm. The data are shown as mean values of 1/V (an inverse of that optical density per minute). The (Z)-BPT derivatives were used at concentrations of 0 (filled circles), 3 (unfilled circles), 6 (filled triangles), and 12 µM (unfilled triangles) for 1; 0 (filled circles), 0.05 (unfilled circles), 0.1 (filled triangles), and 0.2 µM (unfilled triangles) for 2; and 0 (filled circles), 2.5 (unfilled circles), 5 (filled triangles), and 10 µM (unfilled triangles) for 3. Each experiment was run independently in triplicates.
Figure 3 Dixon plots for the inhibition of mushroom tyrosinase activity by (Z)-BPT derivatives 1–3. The Ki values of (Z)-BPT derivatives 1–3 were obtained from the absolute values of the x-coordinate where four straight lines converged at one point. Three independent experiments with four different concentrations of (Z)-BPT derivatives were conducted to measure the augmented dopachrome optical density per minute at 492 nm. The data are shown as the mean values of 1/V (an inverse of that optical density per minute). The (Z)-BPT derivatives were used at concentrations of 0, 3, 6, and 12 µM for 1; 0, 0.05, 0.1, and 0.2 µM for 2; and 0, 2.5, 5, and 10 µM for 3. The experiments were performed at four different concentrations (0.5, 1, 2, and 4 mM) of L-DOPA. Each experiment was run independently in triplicates.
Target sequence in this assay (C7FF04 1-392 limits assumed): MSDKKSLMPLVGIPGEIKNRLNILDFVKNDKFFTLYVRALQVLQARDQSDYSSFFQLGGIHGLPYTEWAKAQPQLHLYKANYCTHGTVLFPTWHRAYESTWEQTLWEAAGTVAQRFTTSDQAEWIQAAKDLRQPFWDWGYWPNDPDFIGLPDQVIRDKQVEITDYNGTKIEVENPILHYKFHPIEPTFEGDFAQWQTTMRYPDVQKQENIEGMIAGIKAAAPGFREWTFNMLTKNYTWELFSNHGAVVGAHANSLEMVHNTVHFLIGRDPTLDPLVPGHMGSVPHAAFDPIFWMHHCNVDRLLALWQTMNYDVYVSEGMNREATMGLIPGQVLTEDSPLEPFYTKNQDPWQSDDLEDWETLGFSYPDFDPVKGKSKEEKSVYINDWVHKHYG

mushroom tyrosinase [3] = biological target: T1, mushroom tyrosinase; assay: Inhibition assay against mushroom tyrosinase (L-tyrosine substrate); assay type: biochemical
Target sequence in this assay (C7FF04 1-392): as the sequence (C7FF04 1-392 limits assumed) above
Description: Therefore, the inhibitory effect of 14 synthetic (Z)-BPT derivatives on mushroom tyrosinase was investigated according to a previously described procedure [39].
Tyrosinase inhibition experiments were performed independently in triplicates. […] The IC50 values are presented as the mean ± standard error of the mean (SEM).
Minor modifications were made to the previous description of the inhibitory activity of mushroom tyrosinase [39]. […] After 30 min incubation at 37 °C, the amount of dopachrome produced in the assay mixture was measured at 492 nm using a microplate reader (VersaMax^TM, Molecular Devices, Sunnyvale, CA, USA) for determining the remaining tyrosinase activity. To obtain the IC50 values for each test sample, dose-dependent inhibition studies were performed in triplicates using three to five different concentrations of each test sample.

| Compound | DPPH radical scavenging activity [1] | other results |
| --- | --- | --- |
| O=C1N=C(c2ccccc2)S/C1=C\c1ccc(O)c(O)c1 [Compound 3, (Z)-5-(3,4-Dihydroxybenzylidene)-2-phenylthiazol-4(5H)-one] | 96.2% | concentrations showing cytotoxic effects (B16F10 cells; at 72 h (first statement of the sentence)): ≥ 5 µM; concentrations showing cytotoxic effects (B16F10 cells; at 72 h (second statement of the sentence)): ≥ 2 µM; pKi (mushroom tyrosinase [2]; Dixon plots, read-out: Ki (inhibition constant)): 5.32; Inhibition type (mushroom tyrosinase [2]; Lineweaver–Burk plot): mixed-type inhibitor |
| COc1cc(/C=C2\SC(c3ccccc3)=NC2=O)ccc1O [Compound 4, (Z)-5-(4-Hydroxy-3-methoxybenzylidene)-2-phenylthiazol-4(5H)-one] | 81.0% |  |
| CCOc1cc(/C=C2\SC(c3ccccc3)=NC2=O)ccc1O [Compound 5, (Z)-5-(3-Ethoxy-4-hydroxybenzylidene)-2-phenylthiazol-4(5H)-one] | 58.0% |  |
| COc1ccc(/C=C2\SC(c3ccccc3)=NC2=O)cc1O [Compound 6, (Z)-5-(3-Hydroxy-4-methoxybenzylidene)-2-phenylthiazol-4(5H)-one] | 25.1% |  |
| O=C1N=C(c2ccccc2)S/C1=C\c1ccccc1O [Compound 7, (Z)-5-(2-Hydroxybenzylidene)-2-phenylthiazol-4(5H)-one] |  | mushroom tyrosinase inhibitory activity (in words) (mushroom tyrosinase [3]): did not exhibit mushroom tyrosinase inhibitory activity |
| COc1cc(/C=C2\SC(c3ccccc3)=NC2=O)cc(OC)c1O [Compound 12, (Z)-5-(4-Hydroxy-3,5-dimethoxybenzylidene)-2-phenylthiazol-4(5H)-one] | moderate to strong DPPH radical scavenging activity |  |
| O=C1N=C(c2ccccc2)S/C1=C\c1ccc(O)c(Br)c1 [Compound 13, (Z)-5-(3-Bromo-4-hydroxybenzylidene)-2-phenylthiazol-4(5H)-one] | 14.8% |  |
| O=C1N=C(c2ccccc2)S/C1=C\c1cc(Br)c(O)c(Br)c1 [Compound 14, (Z)-5-(3,5-Dibromo-4-hydroxybenzylidene)-2-phenylthiazol-4(5H)-one] | 57.3% |  |
| O=C1O[C@H]([C@@H](O)CO)C(O)=C1O [L-Ascorbic acid, L-ascorbic acid, reference compound] | 97.1% |  |
